Test results: US20240116985A1, “STAPLED PEPTIDES AND METHODS THEREOF” (priority 2020, published 2024)
≈ marks a conversion by molar mass, not a printed value. Like-named read-outs stand apart in the source and are kept apart here.

Legend:
[1] = biological target: T1, full-length beta-Catenin (Uniprot ID P35222) (Homo sapiens, UniProt P35222); assay: Fluorescence polarization IC50 (beta-catenin / 5FAM-TCF4 10-53 competition); type: binding; conditions: fluorescence polarization
T1 construct: 10 nM full-length beta-Catenin (Uniprot ID P35222)
T1 sequence (P35222 1-781): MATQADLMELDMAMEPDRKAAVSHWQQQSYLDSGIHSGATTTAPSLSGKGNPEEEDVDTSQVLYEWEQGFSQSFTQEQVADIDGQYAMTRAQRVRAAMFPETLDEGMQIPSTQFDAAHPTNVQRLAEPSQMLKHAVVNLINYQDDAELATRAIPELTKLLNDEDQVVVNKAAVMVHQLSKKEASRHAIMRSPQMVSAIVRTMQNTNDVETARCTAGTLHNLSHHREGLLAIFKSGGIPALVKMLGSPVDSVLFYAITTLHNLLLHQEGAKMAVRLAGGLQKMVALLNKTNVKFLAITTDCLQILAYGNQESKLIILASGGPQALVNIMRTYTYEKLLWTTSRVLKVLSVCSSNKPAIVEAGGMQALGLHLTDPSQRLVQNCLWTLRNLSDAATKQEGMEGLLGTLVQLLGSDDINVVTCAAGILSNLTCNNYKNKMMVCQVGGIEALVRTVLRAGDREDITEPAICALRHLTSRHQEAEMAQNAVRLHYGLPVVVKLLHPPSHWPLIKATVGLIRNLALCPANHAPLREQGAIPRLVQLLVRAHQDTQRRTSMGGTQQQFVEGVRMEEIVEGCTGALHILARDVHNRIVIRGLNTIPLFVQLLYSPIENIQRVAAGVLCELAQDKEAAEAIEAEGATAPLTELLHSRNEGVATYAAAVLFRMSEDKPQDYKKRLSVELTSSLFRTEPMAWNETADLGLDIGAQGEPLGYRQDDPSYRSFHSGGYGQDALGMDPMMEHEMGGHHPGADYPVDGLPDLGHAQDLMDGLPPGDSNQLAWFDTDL

Solubility in PBS = type: physicochemical
In short: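 Steps: ultracentrifuge the peptide PBS solution, inject the supernatant on HPLC, inject a 50 μM peptide DMSO solution as reference, then calculate solubility as area ratio (PBS/DMSO) × 50 uM.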

[2] = beta-catenin, read-out: FP EC50

Row | SMILES | IC50 [1, 2] | IC50 ([1]; read-out: beta-Catenin FP IC50) | Solubility (Solubility in PBS) | Solubility (Solubility in PBS; Solubility (uM))
1 | CC(=O)N1CCC[C@]12CC=CCCCC1(CCCC=CCCCOC(=O)N3CC[C@@](C(=O)N[C@@H](Cc4ccsc4)C(=O)N[C@@H](Cc4csc5ccccc45)C(=O)N[C@H](CO)[C@@H](C)O)(C3)NC(=O)[C@H]([C@@H](C)O)NC(=O)[C@H](Cc3ccccc3)NC(=O)[C@H](C)NC(=O)[C@H](C)NC(=O)[C@H](CC(=O)O)NC(=O)[C@H](CC(=O)O)NC1=O)NC(=O)[C@H](CC(C)(C)C)NC(=O)[C@H](CC(=O)O)NC2=O (stereo partly drawn) [I-1306, Ac-PL3-Asp-Npg-B5-Asp-Asp-Ala-Ala-Phe-Thr-PyrS2-3Thi-BztA-Thro1] |  | 6 nM | 50 µM (≈ 93.3 µg/mL) | 
2 | CC(=O)N1CCC[C@]12CC=CCCCC1(CCCC=CCCCOC(=O)N3CC[C@@](C(=O)N[C@@H](Cc4ccccc4Cl)C(=O)N[C@@H](Cc4csc5ccccc45)C(=O)N[C@H](CO)[C@@H](C)O)(C3)NC(=O)[C@H](CC(C)C)NC(=O)[C@H](Cc3ccccc3)NC(=O)[C@H](C)NC(=O)[C@H](C)NC(=O)[C@H](CC(=O)O)NC(=O)[C@H](CC(=O)O)NC1=O)NC(=O)[C@H](CC1CCCCC1)NC(=O)[C@H](CC(=O)O)NC2=O (stereo partly drawn) [I-1307, Ac-PL3-Asp-Cha-B5-Asp-Asp-Ala-Ala-Phe-Leu-PyrS2-2C1F-BztA-Thro1] |  | 21 nM |  | 20 µM (≈ 38.6 µg/mL)
3 | CC(=O)N1CCC[C@]12CC=CCCCC1(CCCC=CCCCOC(=O)N3CC[C@@](C(=O)N[C@@H](Cc4ccccc4Cl)C(=O)N[C@@H](Cc4csc5ccccc45)C(=O)N[C@H](CO)[C@@H](C)O)(C3)NC(=O)[C@H](CC(C)C)NC(=O)[C@H](Cc3ccccc3)NC(=O)[C@H](C)NC(=O)[C@H](CCCCNC(C)C)NC(=O)[C@H](CC(=O)O)NC(=O)[C@H](CC(=O)O)NC1=O)NC(=O)[C@H](CC(C)(C)C)NC(=O)[C@H](CC(=O)O)NC2=O (stereo partly drawn) [I-1313, Ac-PL3-Asp-Npg-B5-Asp-Asp-iPrLys-Ala-Phe-Leu-PyrS2-2C1F-BztA-Thro1] |  | 12 nM | 10 µM (≈ 20 µg/mL) | 
4 | CC(=O)N1CCC[C@]12CC=CCCCC1(CCCC=CCCCOC(=O)N3CC[C@@](C(=O)N[C@@H](Cc4ccccc4C(F)(F)F)C(=O)N[C@@H](Cc4csc5ccccc45)C(=O)N[C@H](CO)[C@@H](C)O)(C3)NC(=O)[C@H](Cc3ccccc3)NC(=O)[C@H](Cc3ccccc3)NC(=O)[C@H](C)NC(=O)[C@H](C)NC(=O)[C@H](Cc3cccc(C(=O)O)c3)NC(=O)[C@H](CC(=O)O)NC1=O)NC(=O)[C@H](CC(C)(C)C)NC(=O)[C@H](CC(=O)O)NC2=O (stereo partly drawn) [I-1343, Ac-PL3-Asp-Npg-B5-Asp-3COOHF-Ala-Ala-Phe-Phe-PyrS2-2F3MeF-BztA-Thro1] |  | 150 nM | 10 µM (≈ 20.5 µg/mL) | 
5 | CC(C)C[C@@H]1NC(=O)[C@H](Cc2ccccc2)NC(=O)[C@H](C)NC(=O)[C@H](C)NC(=O)[C@H](CC(=O)O)NC(=O)[C@H](CC(=O)O)NC(=O)C2(CCCC=CCCCOC(=O)N3CC[C@@](C(=O)N[C@@H](Cc4ccccc4)C(=O)N[C@@H](Cc4csc5ccccc45)C(=O)N[C@@H](CCC(N)=O)C(N)=O)(C3)NC1=O)CCCC=CC[C@]1(CCCN1C(=O)CCCN(C)C)C(=O)N[C@@H](CC(=O)O)C(=O)N[C@@H](CC(C)(C)C)C(=O)N2 (stereo partly drawn) [I-1358, NdiMeButC-PL3-Asp-Npg-B5-Asp-Asp-Ala-Ala-Phe-Leu-PyrS2-Phe-BztA-Gln-NH2] | 19 nM | 19 nM | 10 µM (≈ 19.8 µg/mL) | 
6 | CC(C)C[C@@H]1NC(=O)[C@H](Cc2ccccc2)NC(=O)[C@H](C)NC(=O)[C@H](C)NC(=O)[C@H](CC(=O)O)NC(=O)[C@H](CC(=O)O)NC(=O)C2(CCCC=CCCCOC(=O)N3CC[C@@](C(=O)N[C@@H](Cc4ccccc4)C(=O)N[C@@H](Cc4csc5ccccc45)C(=O)N[C@@H](CCC(N)=O)C(N)=O)(C3)NC1=O)CCCC=CC[C@]1(CCCN1C(=O)CCCN(C)C)C(=O)N[C@@H](CC(=O)O)C(=O)N[C@@H](CC(C)(C)C)C(=O)N2 (stereo partly drawn) [I-1359, NdiMeButC-PL3-Asp-Npg-B5-Asp-Asp-Ala-Ala-Phe-Leu-PyrS2-Phe-BztA-Gln-NH2] | 88 nM | 88 nM | 34 µM (≈ 67.4 µg/mL) | 
7 | CC(=O)N1CCC[C@]12CC=CCCCC1(CCCC=CCCCOC(=O)N3CC[C@@](C(=O)N[C@@H](Cc4ccccc4)C(=O)N[C@@H](Cc4csc5ccccc45)C(=O)N[C@H](C(N)=O)[C@@H](C)O)(C3)NC(=O)[C@H](CC(C)C)NC(=O)[C@H](Cc3ccccc3)NC(=O)[C@H](C)NC(=O)[C@H](CCCCNC(C)C)NC(=O)[C@H]([C@@H](C)O)NC(=O)[C@H](CC(N)=O)NC1=O)NC(=O)[C@H](C)NC(=O)[C@H](CC(=O)O)NC2=O (stereo partly drawn) [I-1378, Ac-PL3-Asp-Ala-B5-Asn-Thr-iPrLys-Ala-Phe-Leu-PyrS2-Phe-BztA-Thr-NH2] |  | 6170 nM | 10 µM (≈ 19.1 µg/mL) | 

Next, values leading:

Row | IC50 [1, 2] | IC50 ([1]; read-out: beta-Catenin FP IC50) | Solubility (Solubility in PBS) | Solubility (Solubility in PBS; Solubility (uM)) | SMILES
8 | 3780 nM | 3780 nM | 10 µM (≈ 18.4 µg/mL) |  | CC(=O)N1CCC[C@]12CC=CCCCC1(CCCC=CCCCOC(=O)N3CC[C@@](C(=O)N[C@@H](Cc4ccccc4)C(=O)N[C@@H](Cc4csc5ccccc45)C(=O)N[C@@H](CCC(N)=O)C(N)=O)(C3)NC(=O)[C@H](CC(C)C)NC(=O)[C@H](Cc3ccccc3)NC(=O)[C@H](C)NC(=O)[C@H](C)NC(=O)[C@H]([C@@H](C)O)NC(=O)[C@H](CC(N)=O)NC1=O)NC(=O)[C@H](C)NC(=O)[C@H](CC(=O)O)NC2=O (stereo partly drawn) [I-1296, Ac-PL3-Asp-Ala-B5-Asn-Thr-Ala-Ala-Phe-Leu-PyrS2-Phe-BztA-Gln-NH2]
9 |  | 4210 nM | 10 µM (≈ 19.4 µg/mL) |  | CC(=O)N1CCC[C@]12CC=CCCCC1(CCCC=CCCCOC(=O)N3CC[C@@](C(=O)N[C@@H](Cc4ccccc4)C(=O)N[C@@H](Cc4csc5ccccc45)C(=O)N[C@@H](CCC(N)=O)C(N)=O)(C3)NC(=O)[C@H](CC(C)C)NC(=O)[C@H](Cc3ccccc3)NC(=O)[C@H](C)NC(=O)[C@H](CCCCNC(C)C)NC(=O)[C@H]([C@@H](C)O)NC(=O)[C@H](CC(N)=O)NC1=O)NC(=O)[C@H](C)NC(=O)[C@H](CC(=O)O)NC2=O (stereo partly drawn) [I-1376, Ac-PL3-Asp-Ala-B5-Asn-Thr-iPrLys-Ala-Phe-Leu-PyrS2-Phe-BztA-Gln-NH2]
10 |  | 1000 nM | 10 µM (≈ 19.4 µg/mL) |  | CC(=O)N1CCC[C@]12CC=CCCCC1(CCCC=CCCCOC(=O)N3CC[C@@](C(=O)N[C@@H](Cc4ccccc4)C(=O)N[C@@H](Cc4csc5ccccc45)C(=O)N[C@@H](CCCCN)C(N)=O)(C3)NC(=O)[C@H](CC(C)C)NC(=O)[C@H](Cc3ccccc3)NC(=O)[C@H](C)NC(=O)[C@H](CCCCNC(C)C)NC(=O)[C@H]([C@@H](C)O)NC(=O)[C@H](CC(N)=O)NC1=O)NC(=O)[C@H](C)NC(=O)[C@H](CC(=O)O)NC2=O (stereo partly drawn) [I-1377, Ac-PL3-Asp-Ala-B5-Asn-Thr-iPrLys-Ala-Phe-Leu-PyrS2-Phe-BztA-Lys-NH2]
11 |  | 1440 nM | 10 µM (≈ 19.7 µg/mL) |  | CC(=O)N1CCC[C@]12CC=CCCCC1(CCCC=CCCCOC(=O)N3CC[C@@](C(=O)N[C@@H](Cc4ccccc4)C(=O)N[C@@H](Cc4csc5ccccc45)C(=O)N[C@@H](CCC(N)=O)C(N)=O)(C3)NC(=O)[C@H](CC(C)C)NC(=O)[C@H](Cc3ccccc3)NC(=O)[C@H](C)NC(=O)[C@H](CCCCNC(C)C)NC(=O)[C@H](CCC(N)=O)NC(=O)[C@H](CC(N)=O)NC1=O)NC(=O)[C@H](C)NC(=O)[C@H](CC(=O)O)NC2=O (stereo partly drawn) [I-1379, Ac-PL3-Asp-Ala-B5-Asn-Gln-iPrLys-Ala-Phe-Leu-PyrS2-Phe-BztA-Gln-NH2]
